{
  "source": "patent US20240300932A1",
  "about": "“N-PHENYLIMINE DERIVATIVE AND PREPARATION METHOD AND USE THEREOF” (Guizhou University, priority 2023, published 2024)",
  "assay_in_all_cases": "Post-emergence herbicidal activity test (stem and leaf spray, pot culture)",
  "assay_type_in_all_cases": "in vivo",
  "settings_in_all_cases": "3 weeks after spraying",
  "key": {"Abutilon theophrasti": {"system": "Abutilon theophrasti", "outline": "(§1)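 Pot-grown weeds in loam (pH 7, 1.63% organic matter) were spray-treated on stems and leaves at the 2- to 3-leaf stage with compound in acetone/Tween 80 plus 1.5 liters/ha methyl oleate at 10, 5 or 2.5 g/mu. Fresh-weight growth control was scored 3 weeks later as grades 0–5.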"}, "Amaranthus retroflexus": {"system": "Amaranthus retroflexus", "outline": "as §1"}, "Echinochloa crusgalli": {"system": "Echinochloa crusgalli", "outline": "as §1"}, "Portulaca oleracea": {"system": "Portulaca oleracea", "outline": "as §1"}, "Setaria viridis": {"system": "Setaria viridis", "outline": "as §1"}, "Trifoliumre pensL.": {"system": "Trifoliumre pensL.", "outline": "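Pot-grown weeds in loam (pH 7), greenhouse at 20–30 °C, sprayed once post-emergence at the 2–3-leaf stage. Compound in acetone with Tween 80 plus methyl oleate oil (1.5 L/ha), applied at 10, 5 and 2.5 g/mu by spray tower. Effect scored 3 weeks after spraying, averaged over three repeats.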"}},
  "data": [
    {"smiles": "O=C1C2=C(CCCC2)C(=O)N1c1cc(OCc2nnc(-c3ccc(I)cc3)o2)c(Cl)cc1F", "note": "[Compound B17]", "values": [
      {"measurement": "Post-emergence herbicidal activity, A. theophrasti (grade)", "setting": "Abutilon theophrasti; dosage 2.5 g/mu", "result": "5 (Grade 5: the growth control rate is greater than or equal to 85%)"},
      {"measurement": "Post-emergence herbicidal activity, A. theophrasti (grade)", "setting": "Abutilon theophrasti; dosage 5 g/mu", "result": "5 (Grade 5: the growth control rate is greater than or equal to 85%)"},
      {"measurement": "Post-emergence herbicidal activity, A. theophrasti (grade)", "setting": "Abutilon theophrasti; dosage 10 g/mu", "result": "5 (Grade 5: the growth control rate is greater than or equal to 85%)"},
      {"measurement": "Post-emergence herbicidal activity, A. retroflexus (grade)", "setting": "Amaranthus retroflexus; dosage 2.5 g/mu", "result": "5 (Grade 5: the growth control rate is greater than or equal to 85%)"},
      {"measurement": "Post-emergence herbicidal activity, A. retroflexus (grade)", "setting": "Amaranthus retroflexus; dosage 5 g/mu", "result": "5 (Grade 5: the growth control rate is greater than or equal to 85%)"},
      {"measurement": "Post-emergence herbicidal activity, A. retroflexus (grade)", "setting": "Amaranthus retroflexus; dosage 10 g/mu", "result": "5 (Grade 5: the growth control rate is greater than or equal to 85%)"},
      {"measurement": "Post-emergence herbicidal activity, E. crusgalli (grade)", "setting": "Echinochloa crusgalli; dosage 2.5 g/mu", "result": "1 (Grade 1: the growth control rate is greater than or equal to 5% and less than 20%)"},
      {"measurement": "Post-emergence herbicidal activity, E. crusgalli (grade)", "setting": "Echinochloa crusgalli; dosage 5 g/mu", "result": "2 (Grade 2: the growth control rate is greater than or equal to 20% and less than 40%)"},
      {"measurement": "Post-emergence herbicidal activity, E. crusgalli (grade)", "setting": "Echinochloa crusgalli; dosage 10 g/mu", "result": "3 (Grade 3: the growth control rate is greater than or equal to 40% and less than 60%)"},
      {"measurement": "Post-emergence herbicidal activity, P. oleracea (grade)", "setting": "Portulaca oleracea; dosage 2.5 g/mu", "result": "5 (Grade 5: the growth control rate is greater than or equal to 85%)"},
      {"measurement": "Post-emergence herbicidal activity, P. oleracea (grade)", "setting": "Portulaca oleracea; dosage 5 g/mu", "result": "5 (Grade 5: the growth control rate is greater than or equal to 85%)"},
      {"measurement": "Post-emergence herbicidal activity, P. oleracea (grade)", "setting": "Portulaca oleracea; dosage 10 g/mu", "result": "5 (Grade 5: the growth control rate is greater than or equal to 85%)"},
      {"measurement": "Post-emergence herbicidal activity, S. viridis (grade)", "setting": "Setaria viridis; dosage 2.5 g/mu", "result": "2 (Grade 2: the growth control rate is greater than or equal to 20% and less than 40%)"},
      {"measurement": "Post-emergence herbicidal activity, S. viridis (grade)", "setting": "Setaria viridis; dosage 5 g/mu", "result": "3 (Grade 3: the growth control rate is greater than or equal to 40% and less than 60%)"},
      {"measurement": "Post-emergence herbicidal activity, S. viridis (grade)", "setting": "Setaria viridis; dosage 10 g/mu", "result": "4 (Grade 4: the growth control rate is greater than or equal to 60% and less than 85%)"},
      {"measurement": "Post-emergence herbicidal activity, Trifoliumre pensL. (grade)", "setting": "Trifoliumre pensL.; dosage 2.5 g/mu", "result": "5 (Grade 5: the growth control rate is greater than or equal to 85%)"},
      {"measurement": "Post-emergence herbicidal activity, Trifoliumre pensL. (grade)", "setting": "Trifoliumre pensL.; dosage 5 g/mu", "result": "5 (Grade 5: the growth control rate is greater than or equal to 85%)"},
      {"measurement": "Post-emergence herbicidal activity, Trifoliumre pensL. (grade)", "setting": "Trifoliumre pensL.; dosage 10 g/mu", "result": "5 (Grade 5: the growth control rate is greater than or equal to 85%)"}
    ]}
  ]
}
